Experimental data: paper PMC10667816, “A Cell‐Penetrant Peptide Disrupting the Transcription Factor CP2c Complexes Induces Cancer‐Specific Synthetic Lethality” (Advanced Science, 2023)
*1 amine or outer side, *2 acyl side, *3 side chain or, on linkers, in order; H or OH if unused. Where a SMILES comes first, the peptide text is derived from it. Side-chain parts run from the residue outwards. The star is where a group is joined. γGlu = O=C(O)[C@H](CCC(=O)[*:2])N[*:1]; Palmitoyl = CCCCCCCCCCCCCCCC(=O)*

Experiments:
ICR mice = test: Repeated toxicity test of ACP52CGK; type: in vivo, mouse; conditions: 100 mpk intravenously daily for 4 weeks, n = 6/group; brain, heart, liver
Description: To assess the toxicity of ACP52C, twelve 6‐weeks‐old ICR mice (six males and six females) were divided into three groups, each containing two mice: one group received a saline, another received 100 mg kg^−1 of ACP52C, and the third received 1000 mg kg^−1 of ACP52C. For each group, one mouse was intravenously injected once, and the other one was intravenously injected twice with a four‐day interval between injections. At the time of sacrifice, major organs were analyzed by H&E staining. To assess the repeated toxicity of ACP52CGK, twenty‐four 6‐weeks‐old ICR mice (twelve males and twelve females) were used, dividing them into two groups of six mice each: one group received saline, and the other received 100 mg kg^−1 of ACP52CGK. […] Body weight, water and feed consumption were measured every 3 days after injection. […] Major organs were weighed and analyzed by H&E staining. H&E‐stained tissue sections were analyzed and photographed, and the representative histological images were recorded. […]
Repeated toxicity test of ACP52CGK were analyzed in ICR mice by intravenous injection of 100 mpk of ACP52CGK daily for 4 weeks (n = 6/group). A-C) Body weight (A), water consumption (B), and food consumption (C) were measured once every 3 days after injection. D-F) Major organ weight (D), CBC (E), and blood chemistry (F) were measured after sacrifice. Data are expressed as means ± SD in (B-F). […]

U343 glioma cells = test: U343 CDX mouse model; type: in vivo; conditions: intravenous injection every 2 or 3 days from day 14
Description: Animal experiments were conducted in accordance with ethical guidelines, and all protocols were approved by the Institutional Animal Care and Use Committee under Hanyang University (approval numbers, 2014‐0016A, 2018‐0049A, 2018‐0207A, and 2019‐0169A), Chung‐Ang University (approval number, 2015‐00022), Chungbuk University (approval number, CBNUA‐1072‐17‐02), and Konkuk University (approval number, KU17130). To establish xenograft mice models, Hep3B, A431, U343, and PC9 cells were subcutaneously injected into the flank of Balb/c nude mice. For the MDA‐MB‐231 (LM1) cell line, it was implanted into the mammary fat pad of immunodeficient mice (NPG mice). […] Tumor volume was calculated using the formula of length × width^2)/2. […] The in vivo administration amount was determined based on the concentration of ACP52C confirmed at the cellular level, which was 2 µM. […] For ACP52C derivatives, the amount was adjusted to ensure a similar molar quantity of peptide injection, taking their molecular weights into account. For instance, in the case of ACP52CGK, ≈1.67 times the quantity was used compared to ACP52C to achieve an equivalent molar quantity. […] Hematoxylin and eosin (H&E)‐stained tissue sections were analyzed and photographed, and the representative histological images were recorded. […]

[1] = system: normal cells such as mesenchymal stem cells and embryonic stem cells; test: Cell death in normal cells; type: cell-based, human
Description: performance of FQI1. Two micromoles of each Pep #5-2C and FQI1 were added to the cell culture for 2 days. Fractions of benzidine-positive stained cells were counted in MEL cells (n > 100 cells/group) treated with HMBA for 2 days. Hba-a2 gene expression at mRNA and protein levels were estimated by RT-qPCR […]
and WB, respectively. […] ANOVA […]
similar performance of Pep #5 or Pep #5-2. DNA-pull down assays for the [C4] complex (B) and the CBP […]
complexes (C). […] Two-tailed […]
formation by itself, surpassing the performance of FQI1. Co-IP assays for the [C4] complex (D) and the […]
CBP complexes (E). […] Student’s […]
than FQI1. G) Cell growth inhibition plots and GI50 values of FQI1 and ACP52C in various cancer cell lines and normal cells over peptide dose. GI50 values estimated from two independent biological replicates. […]
hESCs were cultured on the Rhodamine -labeled MEF cells. Ten micromoles of each ACP52C and FQI1 were added to the cell culture for 3 days before capturing images of cultures.

CCCCCCCCCCCCCCCC(=O)N[C@@H](CCC(=O)NCCCC[C@H](NC(=O)CNC(=O)CNC(=O)[C@@H]1CCCN1C(=O)[C@H](CCCNC(=N)N)NC(=O)[C@H](CCC(N)=O)NC(=O)[C@@H]1CCCN1C(=O)[C@H](Cc1ccc(O)cc1)NC(=O)[C@H](CC(N)=O)NC(C)=O)C(=O)NCC(=O)NCC(=O)N[C@@H](CS)C(=O)N[C@@H](CCCNC(=N)N)C(=O)NCC(=O)N[C@@H](CC(=O)O)C(=O)N[C@@H](CCCCN)C(=O)NCC(=O)N1CCC[C@H]1C(=O)N[C@@H](CC(=O)O)C(=O)N[C@@H](CS)C(N)=O)C(=O)O [ACP52CGK] (Ac-NYPQRPGGK([γGlu-Palmitoyl])GGCRGDKGPDC-NH2)
adverse effects in normal organs (ICR mice): did not induce any adverse effects

CC(=O)N[C@@H](CC(N)=O)C(=O)N[C@@H](Cc1ccc(O)cc1)C(=O)N1CCC[C@H]1C(=O)N[C@@H](CCC(N)=O)C(=O)N[C@@H](CCCNC(=N)N)C(=O)N1CCC[C@H]1C(=O)N[C@@H](CS)C(=O)N[C@@H](CCCNC(=N)N)C(=O)NCC(=O)N[C@@H](CC(=O)O)C(=O)N[C@@H](CCCCN)C(=O)NCC(=O)N1CCC[C@H]1C(=O)N[C@@H](CC(=O)O)C(=O)N[C@@H](CS)C(N)=O [ACP52C] (Ac-NYPQRPCRGDKGPDC-NH2)
tumor weight (U343 glioma cells): significantly reduced tumor weight

CCOc1ccccc1C1CC(=O)Nc2cc3c(cc21)OCO3 (stereo not drawn) [FQI1, Factor Quinolinone Inhibitor 1, reference compound]
induction of cell death in normal cells [1]: potential to induce cell death
